Consider six compounds from patent publication US5250700A, “Phenyl pyrazolidinones as bronchodilators and anti-inflammatory agents” (American Home Products Corporation, priority 1992, dated 1993).

The assay relates to PDE IV. In words: Inhibition of PDE IV isolated from canine tracheal muscle (cAMP metabolism). It is filed as biochemical. The following applies: canine trachealis PDE IV, 1 μM 3H-cAMP, 10 μM CI-930, 30° C., pH 7.8; reduction expressed relative to 10 μM rolipram. On the procedure:
The following assay is employed to assess the ability of the compound of the invention to inhibit PDE IV. A solution containing PDE IV is prepared from canine tracheal muscle as follows: The dog is euthanized with an overdose of euthanasia while under anesthesia induced by a 33 mg/kg IV bolus of Nembutal. The trachealis muscle is removed, cleaned of connective tissue, and minced thoroughly. Three to four grams of tissue is then homogenized in Trim-HCl buffer (pH 7.8) using a Polytron. The homogenate is then centrifuged at 25,000×g (4° C.) for 30 minutes. The supernatant is decanted and filtered through four layers of gauze, and applied to a 40 cm×2 cm DEAE-Sepharose column that is equilibrated with Trim-HCl buffer (pH 7.8). The column is then washed with an additional 240 mL of buffer to remove unbound proteins. […] Each fraction is assayed for cAMP- and cGMP- metabolizing PDE activity. Fractions eluting at approximately 0.6 M Na-acetate, and containing CAMP but not CGMP metabolic activity are pooled and used as a PDE stock solution for assaying PDE IV inhibitory activity. […] CI-930 is included as an inhibitor of the cyclic GMP-sensitive, cyclic AMP-selectivePDE (PDE III) that is also present in the PDE IV stock solution when prepared as described above.
For orientation: IC50 means the midpoint of a concentration-inhibition curve. A low value points to greater potency in that assay. The compound `COc1ccc(C2CC(=O)N(C(=O)NN3CCOCC3)N2C)cc1OC1CCCC1` (stereo not drawn) [Example 37, 3-(3-Cyclolpentyloxy-4-methoxyphenyl)-2-methyl-5-oxo-pyrazolidine-1-carboxylic acid morilholin-4-ylamide] yielded an IC50 of 3200 nM.

For the compound `COc1ccc(C2CC(=O)N(C(=O)NCCCN3CCCC3=O)N2C)cc1OC1CCCC1` (stereo not drawn) [Example 38, 3-(3-Cyclopentyloxy-4-methoxyphenyl)-2-methyl-5-oxo-pyrazolidine-1-carboxylic acid 3-(2-oxo-pyrrolidin-1-yl) propylamide], the midpoint of inhibition, the IC50, lay at 560 nM.

The compound `COc1ccc(C2CC(=O)N(C(=O)NCc3cccs3)N2C)cc1OC1CCCC1` (stereo not drawn) [Example 39, 3-(3-Cyclopentyloxy-4-methoxyphenyl)-2-methyl-5-oxo-pyrazolidine-1-carboxylic acid thiophen-2-yl methylamide] came in with an IC50 of 150 nM.

As for `COc1ccc(C2CC(=O)N(C(=O)NCCc3cccn3C)N2C)cc1OC1CCCC1` (stereo not drawn) [Example 40, 3-(3-Cyclopentyloxy-4-methoxyphenyl)-2-methyl-5-oxo-pyrazolidine-1-carboxylic acid 2-(1-methyl-1H-pyrrol-2-yl) ethylamide], the IC50 is 190 nM.

`COc1ccc(C2CC(=O)N(C(=O)NCCN3CCOCC3)N2C)cc1OC1CCCC1` (stereo not drawn) [Example 41, 3-(3-Cyclolpentyloxy-4-methoxyphenyl)-2-methyl-5-oxo-pyrazolidine-1-carboxylic acid 2-morlpholin-4-yl ethylamide] gave a 50% inhibitory concentration (IC50) of 2400 nM.

`COc1ccc(C2CC(=O)N(C(=O)NCCCn3ccnc3)N2C)cc1OC1CCCC1` (stereo not drawn) [Example 42, 3-(3-Cyclopentyloxy-4-methoxyphenyl)-2-methyl-5-oxo-pyrazolidine-1-carboxylic acid 3-imidazol-1-yl propylamide]: 210 nM corresponded to half-maximal inhibition (IC50).
